These are literature values, as cited in patent US20240382500A1, “DOPAMINE RECEPTOR AGONISTS OR ANGIOTENSIN RECEPTOR BLOCKERS OR COMBINATIONS THEREOF FOR COVID-19 SEQUELAE” (priority 2023, published 2024).

For series [1] the following is noted: dosages up to 15 mg/day, subjects with early-stage Parkinson's disease.
For series [2] the following is noted: in vivo.
For series [3] the following is noted: 250 mg/day, characterized as a low dose.
Series [4] relates to natural killer cells (NKCs).

Turning to `CCOc1nc2cccc(C(=O)O)c2n1Cc1ccc(-c2ccccc2-c2nn[nH]n2)cc1` [Candesartan], the HMGB1 entry with HMGB1 is “lower”. Also, the “action of ANG II on ICAM-1” value in the series on ICAM-1 is listed as “inhibit”. The microglial phagocytosis result in the series on microglia is listed as “strengthens”.
Turning to `Cc1cc(Oc2ncccc2C(F)(F)F)ccc1-c1c(C)c(=O)[nH]c(=O)n1C` [PF-06649751], in series [1], the motor symptoms entry is “significant improvement”. The “safety and tolerability in human subjects” value in series [2] is “safe and well tolerated”.
Regarding `Oc1cc2c(cc1O)C(c1ccccc1)CNCC2` (centres unmarked) [SKF38393], the “tolerability in preclinical studies” value is “well tolerated”. In addition, the “clinical benefit in schizophrenia” value in series [3] was “failed to show a clinical benefit”. The NKC cytotoxicity result in series [4] was “augments”.
